Residues, ends and D or L forms follow the SMILES beside them.

`CCCSC(=S)N1Cc2[nH]c3ccccc3c2CC1CO` (configuration not stated): the melting point – broadly, the temperature of the solid-liquid transition – lay in the range of 130 to 131 °C.

In the case of `CCCOc1ccc([N+](=O)[O-])cc1[N+](=O)[O-]`, the melting point lay within 84 to 86 °C.

As to `O=C(O)Cc1cc(C(=O)C=Cc2ccc(Cl)cc2)ccc1O`, the melting point is 244 °C.

`CON(C)C(=O)CC1CN=C(c2cc3cccc(N(C)S(=O)(=O)c4cccs4)c3[nH]2)S1` (configuration not stated) displayed a melting point of 153 to 154 °C.

`O=C(NCC(=O)N(CC(=O)N1CCCCC1c1ccccc1)c1ccccc1)Nc1cccc(CO)c1` (racemic) registered a melting point of 104 °C.

Take `COc1ccc(N(C(=O)CCl)c2c(Cl)cccc2Cl)cc1`: the melting point fell in the range of 105 to 106 °C.

In turn, `NC(=S)NN=C(CCCCl)c1ccc(Cl)cc1` had a melting point of 125 to 126 °C.

With `Cn1cnc(S(=O)(=O)O)c1Cl`, the melting point lay within 309 to 310 °C.

For the molecule `COc1c(C)nc2sc(Cl)cn2c1=O`, the melting point was in the range of 138 to 141 °C.

As for `COC(=O)C1=C(C)NC(C)=C(c2nc(CS(=O)(=O)Cc3ccccc3)no2)C1c1cccc([N+](=O)[O-])c1` (configuration not stated), the melting point came to 227 °C.

Turning to `CCOC(=O)CNc1ccc(OCC(=O)OCC)c(NC(=O)c2ccc(OCCCCc3ccccc3)cc2)c1`, the melting point was 61 to 63 °C.

The molecule `COC(=O)c1ccc(Cn2nc(C(C)(C)C)cc2O)cc1` displayed a melting point of 161 to 162 °C.

`CCCOc1ccccc1C1=NC(=O)C2=NC(S)=NC2=N1` registered a melting point of 305 to 307 °C.

For `O=C(O)Cc1ccc2c(c1)CCCOO2`, the melting point lay in the range of 99 to 101 °C.

Turning to `CCc1noc(-c2ncc3[nH]c4c(c3c2COC)CCCC4)n1`, the melting point is 197 to 199 °C.

`Cc1nn(-c2cc(OC(C)C(=O)NS(C)(=O)=O)c(Cl)cc2Cl)c(=O)n1C(F)F` (configuration not stated) returned a melting point of 185 to 188 °C.

Molecule `CCCCOc1ccc(C[C@H](NC(=O)[C@H]2CC[C@H](C(C)C)CC2)C(=O)O)cc1` yielded a melting point of 120 to 121 °C.

The molecule `N#CCCNC(=O)c1cccc(-c2ccc3c(c2)N(c2ccc(Cl)c(Cl)c2)CC3)c1` gave a melting point of 166 to 196 °C.

For `CCOC(=O)CCC1CCN(C(=O)[C@H](C)NC(=O)c2ccc(C(O)=NN)cc2)CC1`, the melting point lay in the range of 194 to 195 °C.

Turning to `COc1ccc(-c2nc(O)cc(O)n2)cc1`, the melting point is 318 °C.

Molecule `O=C(Nc1ccccc1)C1=C(c2ccccc2)C(c2ccccc2)OC1=O` (configuration not stated) yielded a melting point of 148 to 150 °C.

For the molecule `CN1C(=O)COc2c(C(=O)NC3CN4CCC3CC4)cc(O)cc21` (configuration not stated), the melting point was in the range of 250 to 251 °C.

`N#Cc1cc2ccc(OCC3CO3)cc2o1` (configuration not stated) yielded a melting point of 90 to 92 °C.

Molecule `Cc1ccc(C)c(-c2ccc(C#N)c(C)c2)c1` yielded a melting point of 96 to 97 °C.

As to `CCN1CCC(O)(c2cccc(OC)c2)CC1`, the melting point lay within 86.7 to 91.1 °C.

`Cc1nc(-n2cnn(Cc3ccc(F)cc3)c2=O)sc1C(=O)NCc1cccnc1` yielded a melting point of 178 to 179 °C.

For the molecule `CS(=O)(=O)c1ccc(-c2cnn(CC(=O)c3ccc(C#N)cc3)c(=O)c2-c2ccc(F)cc2)cc1`, the melting point lay in the range of 188 to 189 °C.

With `CCC(C(C)=CC(CNC(=O)Cc1n[nH]c(=O)c2ncccc12)=NO)[N+](=O)[O-]` (configuration not stated), the melting point lay within 143 to 145 °C.

`CC(Oc1ccc(Oc2ccc(C(F)(F)F)cc2)cc1)C(N)=O` (configuration not stated): the melting point is 147 to 149 °C.

The molecule `CC1(COC(=O)N2CCN(c3ccc(OC(F)(F)F)cc3)CC2)Cn2cc([N+](=O)[O-])nc2O1` (configuration not stated) came in with a melting point of 138 to 140 °C.

On to `N#CSc1c(C2CC2)[nH]c(Cl)c1C#N`, for which the melting point is 123 °C.

Consider `COc1cc(C)c(O)c2ccccc12`, for which the melting point was 102 to 103 °C.

Consider `Nc1ccc(Nc2c(NCc3ccco3)cc(C(=O)O)cc2S(=O)(=O)Nc2ccccc2N)cc1`, for which the melting point is 182 °C.

Molecule `CCOC(=O)c1cnc2c3cc(NC(=O)Nc4ccccc4)ccc3c(C)cn2c1=O` gave a melting point above 300 °C.

For the molecule `CNc1cc(NS(=O)(=O)c2ccc(N)cc2)nc(N2CCCC2)n1`, the melting point was 299 to 301 °C.

`N#Cc1cccc2c1NC(=O)C21COc2cc3c(cc21)OCO3` (configuration not stated) yielded a melting point of 205 to 207 °C.

`C[C@H]1OC(=O)N[C@@H]1C(=O)NCCO[N+](=O)[O-]` registered a melting point of 81.5 to 82.5 °C.

Consider `C=C1CC(c2ccc(C)c(C)c2)N(C)C1=O` (configuration not stated), for which the melting point lay within 180 to 184 °C.

`CCOC(=O)C=C(C)C=CC=C(C)C=Cc1c(Cl)cc(OC)c(C)c1Cl` came in with a melting point of 100 to 101 °C.

`OC1CSC(Oc2cccc(-c3cccnc3F)c2)C(O)C1O` (configuration not stated) returned a melting point of 160 °C.

As for `CCC(CC)N1CCN(C(=O)Oc2ccc(OC)cc2)CC1`, the melting point is 52 to 54 °C.

Regarding `CC(CCC(O)C(C)(C)O)C1CCC2C3CCC4CC(O)CCC4(C)C3CCC12C` (configuration not stated), the melting point lay within 152 to 154 °C.

`O=C1C[C@@H]2[C@@H](/C=C/[C@H](CCc3ccccc3)OC3CCCCO3)[C@H](OC(=O)c3ccc(-c4ccccc4)cc3)C[C@@H]2O1` (some centres not stated) registered a melting point of 118 to 119 °C.

`CC(=O)NC[C@H]1CN(c2ccc(C(=O)c3ccc[nH]3)cc2)C(=O)O1` showed a melting point of 202 to 205 °C.

For the molecule `COc1cc(C=CC(=O)O)ccc1NC(C)=O`, the melting point was in the range of 222 to 230 °C.

`CN1CCc2cc(Cl)c(O)cc2C1C1(c2ccc(Cl)cc2)CCC1` (configuration not stated) displayed a melting point of 168 to 171 °C.

Molecule `O=C1c2ccccc2C(O)N1CCO[N+](=O)[O-]` (configuration not stated) had a melting point of 143 to 145 °C.

Consider `CC1(C)Oc2ccc([N+](=O)[O-])cc2C(Br)C1Br` (configuration not stated), for which the melting point lay within 130 to 134 °C.

In turn, `COc1cn(-c2ccc(I)cc2F)nc(C(C)=O)c1=O` yielded a melting point of 196 to 198 °C.

Consider `Cc1ccc(NC(=O)c2ccc(C(=O)Nc3ccccc3N)s2)cc1Nc1nc(-c2cccnc2)cs1`, for which the melting point came out at 242 °C.

`NC(=O)C1CCN(c2c(Cl)cncc2Cl)C1` (configuration not stated) registered a melting point of 161 to 163 °C.

As for `O=C(N[C@@H](CSc1ccccc1[N+](=O)[O-])C(=O)O)OCc1ccccc1`, the melting point fell in the range of 84 to 88 °C.

In the case of `CC(C#N)c1ccc(CCc2ccccc2C(=O)O)cc1` (configuration not stated), the melting point was determined as 73 °C.

In turn, `CCOC(=O)c1cnc(Nc2cc(OC)c(OC)c(OC)c2)nc1-c1ccccc1` came in with a melting point of 64 to 65 °C.

Molecule `Cn1c(C(F)(F)F)nn(-c2cc(NS(C)(=O)=O)c(C#N)cc2F)c1=O` yielded a melting point of 67 °C.

`Cc1cc2[nH]c3c(c2cc1C)CC(N(C)C)CC3` (configuration not stated) had a melting point of 183 to 187 °C.

Molecule `CCCCc1nc2ccc(C(C)=O)cc2c(=O)n1Cc1ccc(-c2ccccc2-c2nnnn2C(c2ccccc2)(c2ccccc2)c2ccccc2)cc1` gave a melting point of 104 to 105 °C.

Molecule `CCC1(C)SC(NC)=NN1C(=O)C(C)(C)C` (configuration not stated) gave a melting point of 132 to 136 °C.

As for `CCn1nc2c(cc1=O)CCSc1sc(Br)cc1-2`, the melting point fell in the range of 149 to 151 °C.

For the molecule `Cc1cc(-n2ccc(OCCc3ccccc3)cc2=O)sc1C(=O)NCc1ccccc1`, the melting point was in the range of 159 to 160 °C.

`O=C1NCCc2cc(I)ccc21` displayed a melting point above 300 °C.

Take `CS(=O)(=O)On1nnc2c(Cl)cccc21`: the melting point lay within 71 to 74 °C.

`CCOc1ccc2c(c1)n(C1CCOCC1)c(=O)n2Cc1ccc(NC(=O)N(CC)CC)cc1OC` gave a melting point of 168 °C.

For `ClCc1coc(C=C2c3ccccc3-c3ccccc32)n1`, the melting point was in the range of 175 to 176 °C.

In the case of `COC(=O)c1cccc(C(NCC(=O)Nc2c(C(C)C)cccc2C(C)C)c2ccccc2)c1` (configuration not stated), the melting point fell in the range of 131 to 132 °C.

For `COc1ccc(N(Cc2cc(C(C)(C)C)c(O)c(C(C)(C)C)c2)S(=O)(=O)c2ccc(C)cc2)cn1`, the melting point lay in the range of 127 to 129 °C.

`Cc1ccc(S(=O)(=O)NC(=O)C2C(=O)CC(C(C)C)CC2=O)cc1` (configuration not stated) showed a melting point of 106 to 108 °C.

`NNC(=O)CCc1csc(NC(N)=NCC(F)(F)F)n1` registered a melting point of 125 to 126 °C.

As for `COc1ccc(C2=NN(c3ccccc3)C(=O)[C@H]3CCCC[C@@H]23)cc1OC` (relative stereo), the melting point fell in the range of 122 to 124 °C.

`CN1C(=O)CN(C2=CC(C)(C)Oc3ccc(C#N)cc32)C1=O` came in with a melting point of 188 to 190 °C.

The molecule `COc1ccc(N2CCN(c3ccc(OC)nc3-c3ccc(N(C)C)cc3)CC2)cc1` returned a melting point of 163 to 165 °C.

For `CCOC(=O)c1c(N2CCN(C(=O)c3ccco3)CC2)c2cc(F)cnc2n(Cc2ccccc2)c1=O`, the melting point is 119 °C.

In the case of `CN(C(=O)c1ccc(C(=O)C(C)(C)C)cc1)C(=O)c1ccc(C(=O)C(C)(C)C)cc1`, the melting point came to 122 °C.

As for `CCOC(=O)c1cc(-c2ccccc2)n(-c2ccc(S(N)(=O)=O)cc2)n1`, the melting point fell in the range of 192 to 195 °C.

Consider `CN1CNS(=O)(=O)c2cc(O)ccc21`, for which the melting point lay in the range of 168 to 172 °C.

Consider `Cc1c(Br)sc2cc(CO)ccc12`, for which the melting point is 91 °C.

With `c1ccc(NC2CCCN2Cc2c[nH]c3ccccc23)cc1` (configuration not stated), the melting point fell in the range of 150 to 151 °C.

In turn, `C=C(C)C(=O)OCCCCCCOc1ccc(C(=O)Oc2ccc3ccc(=O)oc3c2)cc1` gave a melting point of 98 to 104 °C.

With `Cc1c([N+](=O)[O-])ccc2c1ccn2C`, the melting point was in the range of 120 to 123 °C.

Molecule `O[C@@H]1[C@H](O)CS[C@H]1n1cnc2c(NCc3ccccc3Cl)nc(Cl)nc21` displayed a melting point of 199 to 200 °C.

Take `CC(C)CC(NC(=O)C(Cc1ccccc1)NC(=O)CNC(=O)C(C)NC(=O)C(N)Cc1ccc(O)cc1)C(=O)NC(CCCNC(=N)N)C(=O)O` (configuration not stated) (H-YAGFLR-OH; configuration not given here): the melting point fell in the range of 173 to 176 °C.

`N#Cc1ccccc1C(Cl)(Cl)Cl` yielded a melting point of 98.9 to 100 °C.

In turn, `CCC(=O)NCCC1CCc2cc(F)c(OC)cc21` (configuration not stated) had a melting point of 76 to 78 °C.

`O=[N+]([O-])c1ccc(-c2cc(-c3ccc(Cl)cc3)[nH]c2C(F)(F)F)s1` gave a melting point of 65 to 66 °C.

For the molecule `C#CCOc1ccc(-c2nc3cnccc3[nH]2)c(OC)c1`, the melting point was determined as 210 °C.

Molecule `CCCC[C@H](NC(=O)[C@H](CC(C)C)NC(=O)OC(C)(C)C)C(=O)CCCc1cccs1` came in with a melting point of 70 to 72 °C.

`COc1cc2nc(Cl)nc(N3CCN(C(=O)Nc4ccc(Oc5ccccc5)cc4)CC3)c2cc1OC` registered a melting point of 178 to 179 °C.

The values above are taken from a melting point compilation (Tetko et al.; mined from patent text by program, amines drawn as free bases though some values may be those of a salt).
